Assays:
[1] = Stability of crystal forms A and B in admixture with excipients (HPLC content after storage); assay type: physicochemical; settings: for content of Org 12962 remaining after storage, percentage of the initial amount: 14 days
Method: To each aliquot an excipient mentioned in Table II was added, followed by 10 μl of water, after which the suspensions were thoroughly mixed.
Aliquots of Org 12962 (5-10 mg) in crystal form B (100% form B) were weighed into roundbottomed tubes. To each aliquot an excipient mentioned in Table II was added, followed by 100 μl of water. Glass beads (250-300 mg) were added to each tube, after which the samples were thoroughly mixed for 1 minute. The residual water was evaporated in vacuo at room temperature. The tubes were stored in the dark for 14 days at either 20° C. or at 60° C. The samples were dissolved in 20.0 ml of a 70:30 mixture of 25 mM phosphate pH 2.6 buffer and acetonitrile. Dissolution was effected by keeping the tubes in a sonifier for 20 minutes.
Quantitative analysis of the amount of Org 12962 per tube was done by high performance liquid chromatography (hplc) using either of the following validated methods: (1) using a Symmetry Shield Reverse Phase RP 18 column (150×4.6 mm), which was operated at 40° C., using a flow rate of 1.0 ml/min, and as eluent a 69:31 (v/v) mixture of 25 mM phosphate buffer pH 2.6 buffer, also containing 15 mM octanesulphonic acid, and acetonitrile, or (2) using a Lichrospher 60 RP Select B column (125×4.0 mm), which was operated at ambient temperature, using a flow rate of 1.5 ml/min, and as eluent a 55:45 (v/v) mixture of methanol and water, also containing 5 mM octanesulphonic acid. The content of Org 12962 remaining in the samples after storage is given in Table II as the percentage (%) of the initial amount.

[2] = Thermodynamic stability / interconversion of crystal forms of Org 12962; assay type: physicochemical; settings: solid crystal forms of Org 12962 compared
[3] = admixture with Cornstarch (10 mg per 5.0 mg Org 12962), 20° C./dark
[4] = admixture with Cornstarch (10 mg per 5.0 mg Org 12962), 60° C./dark
[5] = admixture with HPC (2 mg per 5.0 mg Org 12962), 20° C./dark
[6] = admixture with HPMC (1.3 mg per 5.0 mg Org 12962), 20° C./dark
[7] = admixture with HPMC (1.3 mg per 5.0 mg Org 12962), 60° C./dark
[8] = admixture with Lactose (80 mg per 5.0 mg Org 12962), 20° C./dark
[9] = admixture with Lactose (80 mg per 5.0 mg Org 12962), 60° C./dark
[10] = admixture with Mg-stearate (0.5 mg per 5.0 mg Org 12962), 20° C./dark
[11] = admixture with Mg-stearate (0.5 mg per 5.0 mg Org 12962), 60° C./dark
[12] = admixture with PEG 400 (0.3 mg per 5.0 mg Org 12962), 20° C./dark
[13] = admixture with PEG 400 (0.3 mg per 5.0 mg Org 12962), 60° C./dark
[14] = admixture with Primojel (4 mg per 5.0 mg Org 12962), 20° C./dark
[15] = admixture with Primojel (4 mg per 5.0 mg Org 12962), 60° C./dark
[16] = admixture with Talc (0.3 mg per 5.0 mg Org 12962), 20° C./dark
[17] = admixture with Talc (0.3 mg per 5.0 mg Org 12962), 60° C./dark
[18] = admixture with Titanium dioxide (0.2 mg per 5.0 mg Org 12962), 20° C./dark
[19] = admixture with Titanium dioxide (0.2 mg per 5.0 mg Org 12962), 60° C./dark

SMILES	content of Org 12962 remaining after storage, percentage of the initial amount [1, 3] [%]	content of Org 12962 remaining after storage, percentage of the initial amount [1, 4] [%]	content of Org 12962 remaining after storage, percentage of the initial amount [1, 5] [%]	content of Org 12962 remaining after storage, percentage of the initial amount [1, 6] [%]	content of Org 12962 remaining after storage, percentage of the initial amount [1, 7] [%]	content of Org 12962 remaining after storage, percentage of the initial amount [1, 8] [%]	content of Org 12962 remaining after storage, percentage of the initial amount [1, 9] [%]	content of Org 12962 remaining after storage, percentage of the initial amount [1, 10] [%]	content of Org 12962 remaining after storage, percentage of the initial amount [1, 11] [%]	content of Org 12962 remaining after storage, percentage of the initial amount [1, 12] [%]	content of Org 12962 remaining after storage, percentage of the initial amount [1, 13] [%]	content of Org 12962 remaining after storage, percentage of the initial amount [1, 14] [%]	content of Org 12962 remaining after storage, percentage of the initial amount [1, 15] [%]	content of Org 12962 remaining after storage, percentage of the initial amount [1, 16] [%]	content of Org 12962 remaining after storage, percentage of the initial amount [1, 17] [%]	content of Org 12962 remaining after storage, percentage of the initial amount [1, 18] [%]	content of Org 12962 remaining after storage, percentage of the initial amount [1, 19] [%]	other results
Cl.FC(F)(F)c1ccc(N2CCNCC2)nc1Cl [I, 1-[6-Chloro-5-(trifluoromethyl)-2-pyridinyl]piperazine.hydrochloride]	100.0	82.6	98.0	95.0	91.8	94.5	91.2	97.9	93.8	96.5	92.5	95.0	94.6	99.2	94.5	96.0	97.5	–
Cl.FC(F)(F)c1ccc(N2CCNCC2)nc1Cl [II, 1-[6-Chloro-5-(trifluoromethyl)-2-pyridinyl]piperazine.hydrochloride]	100.1	97.9	100.0	100.0	97.8	99.6	97.4	99.9	97.9	99.8	96.3	100.0	96.0	99.9	100.1	99.8	92.9	thermodynamic stability of the crystal form ([2]; listed as crystal form B): thermodynamically most stable form; content of Org 12962 remaining after storage, percentage of the initial amount ([1]; admixture with HPC (2 mg per 5.0 mg Org 12962), 60° C./dark): 96.5%; stability in admixture with pharmaceutical excipients, compared with crystal form A ([1]; stored in the dark, especially notable at 60° C. with lactose and cornstarch): more stable
Cl.FC(F)(F)c1ccc(N2CCNCC2)nc1Cl [form C, 1-[6-Chloro-5-(trifluoromethyl)-2-pyridinyl]piperazine.hydrochloride]	–	–	–	–	–	–	–	–	–	–	–	–	–	–	–	–	–	thermodynamic stability of the crystal form [2]: spontaneously converts to form B, even at −20 °C

Reference: US20040038985A1, “Crystal forms of 1- [6-chloro-5-(trifluoromethly) -2-pyridinyl] piperazine hydrochloride” (priority 2000, published 2004)
